Experimental data: PubChem BioAssay AID1996
Values after ≈ are worked out from the molar mass of the structure shown.

Conditions: buffer; pH 7.4; 200.0 µM

Structure (SMILES) | solubility kinetic
COc1ccccc1NC(=O)CN1CCN(c2ccccc2)CC1 | 35.3 µg/mL (≈ 108 µM)
CC(=O)Oc1ccc(C(=O)Nc2cccc(C(=O)NC(C)(C)C)c2)cc1 | 45 µg/mL (≈ 127 µM)
O=C(NCC1CCCO1)c1csc(Nc2cccc3ccccc23)n1 (stereo not drawn) | 28.5 µg/mL (≈ 80.6 µM)
Cc1c(C)n(Cc2ccccc2)c2ncnc(Cl)c12 | 0.3 µg/mL (≈ 1.1 µM)
O=S(=O)(Nc1nc2ccccc2nc1NCC1CCCO1)c1ccccc1 (stereo not drawn) | > 57.7 µg/mL
CC1CN(CC(=O)NCc2ccccc2)CC(C)O1 (stereo not drawn) | 36.1 µg/mL (≈ 138 µM)
O=C(NCCN1CCOCC1)c1cc([N+](=O)[O-])ccc1Cl | > 47.1 µg/mL
CN1CCN(CC#CCC(O)(c2ccccc2)c2ccccc2)CC1.Cl | > 55.6 µg/mL
Cc1ccc(C(=O)N2CCCCC2)cc1S(=O)(=O)N1CCCC1 | > 50.5 µg/mL
Cn1c(S(=O)(=O)O)nc2ccccc21 | 31.5 µg/mL (≈ 148 µM)
N#C/C(=C\c1ccc(O)c(O)c1)C(=O)Nc1cccc2ncccc12 | 20 µg/mL (≈ 60.4 µM)
CC(C)c1ccccc1NC1=NCCCS1 | 35 µg/mL (≈ 149 µM)
COCCCNC(=O)c1cc2cc(Br)ccc2oc1=O | 4.4 µg/mL (≈ 12.9 µM)
Cc1ccc(Nc2nc(N)c([N+](=O)[O-])c(NCCO)n2)cc1C | 2.1 µg/mL (≈ 6.6 µM)
CC(C)CC(NC(=O)OC(C)(C)C)C(=O)O.O (stereo not drawn) | > 37.4 µg/mL
CN(C)c1ccc(CNc2ccccn2)cc1 | 22.3 µg/mL (≈ 98.1 µM)
N#Cc1c(-c2ccccc2Cl)c2c([nH]c1=O)-c1ccccc1OC2 | 11.6 µg/mL (≈ 34.7 µM)
COc1ccc(-n2nc(C)cc2Nc2ccccc2C(=O)O)cc1 | > 48.5 µg/mL
NC(=O)c1ccc(NC(=O)COC(=O)CC2CC3CCC2C3)cc1 (stereo not drawn) | 13 µg/mL (≈ 39.3 µM)
COc1ccc(C(=O)Nc2ccc3ccccc3n2)c(OC)c1OC | 2.2 µg/mL (≈ 6.5 µM)
CCc1cc(C(=O)NC(C)C2CCCO2)cs1 (stereo not drawn) | > 38 µg/mL
O=C(Cn1ccccc1=O)NCc1ccc(F)cc1 | 24.1 µg/mL (≈ 92.6 µM)
CC1(C)S[C@@H]2[C@H](NC(=O)C(C(=O)[O-])c3ccccc3)C(=O)N2[C@H]1C(=O)[O-].[Na+] (stereo partly drawn) | > 63.4 µg/mL
CN(C)S(=O)(=O)c1cccc(NC(=S)NCc2ccco2)c1 | > 50.9 µg/mL

Structure (SMILES) | solubility kinetic
CC(C)(C)NC(=O)NC(=O)CN1CCCCCCC1 | 21.2 µg/mL (≈ 78.7 µM)
Nc1cccc(CCc2ccncc2)c1 | > 29.7 µg/mL
Cc1ccc(/C=N/N2CCOCC2)s1 | > 31.5 µg/mL
CC(CCc1ccccc1)NC(=O)CC(C)c1ccccc1 (stereo not drawn) | 43.4 µg/mL (≈ 147 µM)
COc1ccc2cc(C(=O)N3CCN(c4ccccc4OC)CC3)[nH]c2c1 | 2.9 µg/mL (≈ 7.94 µM)
COc1ccc(CN(C)Cc2c(O)ccc3ccccc23)cc1 | 16.7 µg/mL (≈ 54.3 µM)
Fc1ccc(CN2CCCN(C(=S)Nc3ccc(F)cc3)CC2)cc1 | > 54.2 µg/mL
COC(=O)CCCNC(=O)c1ccc2[nH]c(C)c(C)c2c1 | > 43.3 µg/mL
O=C(COc1ccccc1)NCC1COc2ccccc2O1 (stereo not drawn) | 44.8 µg/mL (≈ 150 µM)
O=C(CCn1cnc2ccccc2c1=O)Nc1cccc(Cl)c1Cl | 3.8 µg/mL (≈ 10.5 µM)
COc1ccccc1OC(C)C(=O)N1CC(=O)Nc2ccccc21 (stereo not drawn) | > 49 µg/mL
Cc1ccc(C(=O)NCCNC(=O)c2ccc(F)cc2)cn1 | > 45.2 µg/mL
CN(C)S(=O)(=O)c1cccc(NC(=O)Cc2ccsc2)c1 | > 48.7 µg/mL
O=C(Nc1ccccc1N1CCCC1)c1cccc(F)c1 | > 42.6 µg/mL
Nc1nccc(-c2cc(-c3ccc(Cl)cc3Cl)no2)n1 | 0.7 µg/mL (≈ 2.28 µM)
O=S(=O)(NC1CC2CCC1C2)c1ccc(Br)cc1 (stereo not drawn) | 13.9 µg/mL (≈ 42.1 µM)
CSCC[C@H](NC(=O)c1cccc(S(=O)(=O)N2CCCCC2)c1)c1nc2ccccc2[nH]1 | 1.6 µg/mL (≈ 3.39 µM)
Cc1ccc(C(=O)NC(=S)NCc2cccnc2)cc1C | 26.9 µg/mL (≈ 89.8 µM)
COc1cc2c(cc1OC)CN(Cc1cc(OC)c(O)c(OC)c1)CC2 | 47.7 µg/mL (≈ 133 µM)
O=C(O)C(=O)O.c1ccc(CNC23CC4CC(CC(C4)C2)C3)nc1 | 45.8 µg/mL
CN(C)C(=O)Nc1ccccc1 | > 24.6 µg/mL
Cc1nc(Cl)c(C(=O)Nc2cccc(F)c2)c(C)c1Cl | 4.9 µg/mL (≈ 15.6 µM)
O=C(NC1CC1)c1ccc(-n2cccc2)cc1 | 17.4 µg/mL (≈ 76.9 µM)
COc1ccc(N2CCOCC2)c(NC(=O)c2cc3ccccc3o2)c1 | < 0.4 µg/mL
